Like-named read-outs stand apart in the source and are kept apart here.
What was measured:
CCRF-CEM = assay: MTS cytotoxic assay, CCRF-CEM; format: cell-based; settings: Homo sapiens, 72 h
From the text: (§1) If not indicated otherwise, the cell lines were purchased from the American Type Culture Collection (ATCC). […] K562 is the erythroid-myeloid precursor cell line derived from chronic myeloid leukemia carrying the BCR-ABL hybrid gene. A549, MCF-7, PC-3, 5637, U-2 OS, and MiaPaCa-2 are cells derived from lung, breast, prostate, bladder carcinoma, osteosarcoma, and pancreatic adenocarcinoma, respectively. HEK 293T are transformed human embryonic kidney cells, and L929 (Sigma, St. Louis, MS, USA) are transformed mouse fibroblasts. HCT116, cells from colorectal carcinoma, and their p53 gene knock-out variant (HCT116p53-/-) were purchased from Horizon Discovery. This cell line is a model of human tumors bearing p53 loss-of-function mutations or biallelic deletion of the p53 gene, frequently associated with poor prognosis. The MRC-5 and BJ cells were used as noncancerous cells; more specifically, they are human fibroblasts from the lungs and foreskin, respectively. According to the supplier’s recommendations, all cells were cultured at 37 °C in a 5% CO2 atmosphere and 100% humidity. The culture media used were: DMEM, RPMI 1640, and MEM (according to a cell line); all were supplemented with 5 g L^−1 glucose, 10% fetal calf serum, 2 mM glutamine, 100 U mL^−1 penicillin, 100 µg mL^−1 streptomycin, and NaHCO3. Cells were passaged every two or three days using 0.25% trypsin plus 0.01% EDTA (ethylenediamine tetraacetic acid) in phosphate-buffered saline.
(§2) To evaluate compound cytotoxicity, cells were seeded in 384-well microtiter plates in a volume of […]. The next day, aliquots of the tested derivatives were transferred with Echo550 acoustic liquid handler (Labcyte) to obtain dose response curves with dilution factor 4. The experiments were performed in technical duplicates and three or more biological replicates. After 72 h of incubation in a humidified incubator, […] of the MTS/PMS stock solution were pipetted into each well. After another 1–4 h of incubation, the absorbance at 490 nm was measured using an EnVision Multilabel Plate Reader (PerkinElmer).

K562 = assay: MTS cytotoxic assay, K562; format: cell-based; settings: Homo sapiens
From the text: as §1, §2

A549 = assay: MTS cytotoxic assay, A549; format: cell-based; settings: Homo sapiens
From the text: as §1, §2

HCT116 = assay: MTS cytotoxic assay, HCT116; format: cell-based; settings: Homo sapiens
From the text: as §1, §2

HCT116p53-/- = assay: MTS cytotoxic assay, HCT116p53-/-; format: cell-based; settings: Homo sapiens, 72 h
From the text: as §1, §2

MiaPaCa-2 = assay: MTS cytotoxic assay, MiaPaCa-2; format: cell-based; settings: Homo sapiens
From the text: as §1, §2

U-2 OS = assay: MTS cytotoxic assay, U-2 OS; format: cell-based; settings: Homo sapiens, U2OS, 72 h
From the text: as §1, §2

5637 = assay: MTS cytotoxic assay, 5637; format: cell-based; settings: Homo sapiens, 72 h
From the text: as §1, §2

HEK 293T = assay: MTS cytotoxic assay, HEK 293T; format: cell-based; settings: Homo sapiens, 72 h
From the text: as §1, §2

MRC-5 = assay: MTS cytotoxic assay, MRC-5; format: cell-based; settings: Homo sapiens
From the text: as §1, §2

L929 = assay: MTS cytotoxic assay, L929; format: cell-based, mouse
From the text: as §1, §2

CCRF-CEM cells [1] = assay: Cell cycle arrest and cell death analysis by flow cytometry (propidium iodide, pH3Ser10); format: cell-based, human; settings: % of positive cells
Experimental: Together with the CG-treated cells, a vehicle-treated sample was harvested at the same time point. After 24 h, the cells were washed with cold phosphate-buffered saline, fixed dropwise in 70% ethanol, and stored overnight at −20 °C. The cells were then washed with hypotonic citrate buffer, treated with RNAse (50 µg mL^−1), and stained with propidium iodide. Flow cytometry using a 488 nm laser (FACS-Calibur, Becton Dickinson, NJ, USA) was used for measurement. The cell cycle was analyzed by the ModFitLT program (Verity), and apoptosis was measured in a logarithmic model expressing the percentage of particles with a lower propidium content than cells in the G0/G1 phase (<G1) of the cell cycle in the CellQuest program (Becton Dickinson). Half of the sample was used to label cells with pH3^Ser10-FITC antibody (Exbio) for subsequent flow cytometry analysis of mitotic cells.

CCRF-CEM cells [2] = assay: BrDU incorporation analysis (DNA synthesis); format: cell-based, human; settings: % of positive cells
Experimental: The cells were cultured in the same way as the cell cycle analysis method. Just before harvesting, 5-bromo-2′-deoxyuridine (BrDU) of 10 µM concentration was added to the cells for pulse-labeling for 30 min. Then, the cells were fixed with −20 °C cold 70% ethanol and stored in a freezer for 16 h. Before antibody staining, the samples were incubated on ice for 30 min, washed once with phosphate-buffered saline (PBS), and re-suspended in 2 M of HCl for 30 min at room temperature to hydrolyze their DNA. After neutralization with 0.1 M of Na2B4O7 (borax) solution, the cells were washed with PBS containing 0.5% Tween-20 and 1% BSA. This was followed by staining with the primary anti-BrDU antibody (Exbio) for 30 min at room temperature. Then, the cells were washed with PBS and stained with a secondary anti-mouse antibody conjugated to fluorescein isothiocyanate (Merck-Sigma, St. Louis, MS, USA) at room temperature in the dark. After another washing with PBS and incubation with propidium iodide (0.1 mg·mL^−1) and RNAse A (0.5 mg·mL^−1) for 1 h at room temperature in the dark, the cells were analyzed by flow cytometry using a 488 nm laser (FACSCalibur, Becton Dickinson, Franklin Lakes, NJ, USA).

CCRF-CEM cells [3] = assay: BrU incorporation analysis (RNA synthesis); format: cell-based, human; settings: % of positive cells
Experimental: The cells were cultured and processed as described above. Before harvesting, the cells were pulse-labeled with 1 mM of 5-bromouridine (BrU) for 30 min. The cells were then fixed in 1% buffered paraformaldehyde with 0.05% NP-40 at room temperature for 15 min, and then stored at 4 °C overnight. Before measurement, they were washed with 1% glycine in PBS, washed again with PBS, and stained with primary anti-BrdU antibody cross-reactive to BrU (Exbio) for 30 min at room temperature in the dark. From this point on, the experiment was performed exactly as in the method described above.

SMILES	IC50 (CCRF-CEM)	IC50 (K562; K562, 72 h)	IC50 (A549; A549, 72 h)	IC50 (HCT116; HCT-116, 72 h)	IC50 (HCT116p53-/-)	IC50 (MiaPaCa-2; MIA PaCa-2, 72 h)	< G1 (apoptotic cells) (CCRF-CEM cells [1]; 1 × IC50, 24 h)	G0/G1 (CCRF-CEM cells [1]; 1 × IC50, 24 h)	G2/M (CCRF-CEM cells [1]; 1 × IC50, 24 h)	M (Phospho-Histone3 (Ser10)) (CCRF-CEM cells [1]; 1 × IC50, 24 h)	S (CCRF-CEM cells [1]; 1 × IC50, 24 h)	< G1 (apoptotic cells) (CCRF-CEM cells [1]; 5 × IC50, 24 h)	G0/G1 (CCRF-CEM cells [1]; 5 × IC50, 24 h)	G2/M (CCRF-CEM cells [1]; 5 × IC50, 24 h)	M (Phospho-Histone3 (Ser10)) (CCRF-CEM cells [1]; 5 × IC50, 24 h)	S (CCRF-CEM cells [1]; 5 × IC50, 24 h)	BrDU (CCRF-CEM cells [2]; 1 × IC50, 24 h)	BrDU (CCRF-CEM cells [2]; 5 × IC50, 24 h)	BrU (CCRF-CEM cells [3]; 1 × IC50, 24 h)	BrU (CCRF-CEM cells [3]; 5 × IC50, 24 h)	also measured
CO[C@H]1C[C@H](O[C@H]2CC[C@]3(C=O)[C@H]4CC[C@]5(C)[C@@H](C6=CC(=O)OC6)CC[C@]5(O)[C@@H]4CC[C@]3(O)C2)O[C@H](C)[C@H]1O [Cy, cymarin]	14 ± 2.1 nM	25 ± 4.5 nM	15 ± 1.8 nM	21 ± 2.5 nM	19 ± 3.8 nM	44 ± 8.6 nM	2.89%	35.78%	24.35%	1.43%	39.87%	7.01%	40.34%	28.49%	1.08%	31.17%	32.34%	21.37%	35.63%	27.52%	IC50 (U-2 OS): 43 ± 1.8 nM; IC50 5637: 89 ± 5.5 nM; IC50 (HEK 293T; HEK-293T): 3.02 ± 1.4 nM; IC50 (MRC-5; MRC5, 72 h): 26 ± 2.4 nM; IC50 (L929; Mus musculus, L929, 72 h): > 10000 nM
C[C@@H]1O[C@@H](O[C@H]2C[C@@H](O)[C@]3(CO)[C@H]4[C@H](O)C[C@]5(C)[C@@H](C6=CC(=O)OC6)CC[C@]5(O)[C@@H]4CC[C@]3(O)C2)[C@H](O)[C@H](O)[C@H]1O [Ob, ouabain]	–	–	–	–	–	–	20.68%	40.42%	33.80%	1.73%	25.78%	33.31%	33.94%	25.27%	0.63%	40.80%	40.53%	19.29%	39.77%	6.56%	IC50 (CCRF-CEM; MTS, read-out: IC50): 32 ± 5.8 nM; IC50 (K562; K562, MTS, 72 h, read-out: IC50): 57 ± 6.2 nM; IC50 (A549; A549, MTS, 72 h, read-out: IC50): 22 ± 0.94 nM; IC50 (HCT116; HCT-116, HCT116, MTS, 72 h, read-out: IC50): 30 ± 3.6 nM; IC50 (HCT116p53-/-; HCT116p53-/-, MTS, read-out: IC50): 28 ± 7.6 nM; IC50 (MiaPaCa-2; MIA PaCa-2, MiaPaCa-2, MTS, 72 h, read-out: IC50): 49 ± 2.01 nM; IC50 (U-2 OS; U-2 OS, MTS, read-out: IC50): 59 ± 1.1 nM; IC50 (5637; 5637, MTS, read-out: IC50): 110 ± 11 nM; IC50 (HEK 293T; HEK 293T, MTS, read-out: IC50): 35 ± 1.2 nM; IC50 (MRC-5; MRC5, MRC-5 noncancerous lung fibroblasts, MTS, 72 h, read-out: IC50): 39 ± 1.6 nM; IC50 (L929; L929 mouse transformed fibroblasts, MTS, 72 h, read-out: IC50): > 10000 nM
C[C@]12CC[C@H]3[C@@H](CCC4=C[C@@H](O[C@@H]5OC[C@@H](O[C@@H]6O[C@H](CO)[C@@H](O)[C@H](O)[C@H]6O)[C@H](O)[C@H]5O)CC[C@@]43C=O)[C@@]1(O)CC[C@@H]2C1=CC(=O)OC1 [Hyr, (3β)-3-[(4-O-β-D-glucopyranosyl-β-D-xylopyranosyl)oxy]-14-hydroxy-19-oxocarda-4,20(22)-dienolide]	660 ± 38 nM	800 ± 52 nM	550 ± 38 nM	670 ± 37 nM	730 ± 98 nM	491 ± 23 nM	2.82%	38.48%	26.30%	1.41%	35.22%	5.82%	42.13%	34.86%	0.95%	23.01%	30.58%	23.58%	28.80%	3.82%	IC50 (U-2 OS): 1100 ± 59 nM; IC50 5637: 1510 ± 51 nM; IC50 (HEK 293T; HEK-293T): 383 ± 8.9 nM; IC50 (MRC-5; MRC5, 72 h): 302 ± 43 nM; IC50 (L929; Mus musculus, L929, 72 h): > 10000 nM
C[C@]12CC[C@H]3[C@@H](CCC4=C[C@@H](O[C@@H]5OC[C@@H](O)[C@H](O)[C@H]5O)CC[C@@]43C=O)[C@@]1(O)CC[C@@H]2C1=CC(=O)OC1 [deHyr, deglucohyrcanoside]	110 ± 21 nM	130 ± 21 nM	90 ± 14 nM	140 ± 16 nM	130 ± 23 nM	120 ± 5.2 nM	22.02%	44.90%	37.50%	1.44%	17.60%	27.43%	39.12%	26.34%	1.56%	34.53%	37.40%	6.08%	38.91%	12.17%	IC50 (U-2 OS): 165 ± 11 nM; IC50 5637: 398 ± 46 nM; IC50 (HEK 293T; HEK-293T): 38 ± 0.97 nM; IC50 (MRC-5; MRC5, 72 h): 77 ± 12 nM; IC50 (L929; Mus musculus, L929, 72 h): > 10000 nM
